Measured values as given in patent US10420813B2, “Competitive inhibitors of invariant chain expression and/or ectopic clip binding” (Regents of the University of Colorado, a body corporate, priority 2007, dated 2019).
No end group written: not given here.

Tests used:
Daudi cells = test: Binding of biotinylated peptide to cells (Streptavidin-PE); type: cell-based, human; details: 50 microMolar
Protocol: (§1) The ability of synthetic peptides to compete with binding of CLIP peptides and result in the cell surface expression of CD1d was determined.
(§2) Results: The results shown in FIG. 5 are expressed in histogram analyses. The Y axis represents cell number of the 5000 live cells versus the X axis which is a reflection of relative Fitc fluorescence versus Streptavidin-PE (eBioscience, Cat. #12-4317) that will bind with high affinity to cell-bound biotinylated peptides. The distance between the histogram from the isotype control staining versus the histogram reflecting the specific stain and is a measure of level of cell surface CD1d.
(§3) Cell Culture Conditions: The Raji and Daudi cell lines were purchased from American Type Culture Collection, were thawed, and grown in RPMI 1640 medium supplemented with standard supplements, including 10% fetal calf serum, gentamycin, penicillin, streptomycin, sodium pyruvate, HEPES buffer, 1-glutamine, and 2-ME.
(§4) Protocol: Cells were plated into a 12 well plate with 3 mls total volume containing approximately 1.5×10^6/well for Daudi cells and 3.0×10^6/well for Raji cells. Treatment groups included no treatment as control and biotinylated […] (SEQ ID NO: 2) (also referred to as MKN 5) at 50 microMolar final concentration based on the reported molarity of the synthesized compounds.
(§5) The cells were incubated at 37° C. in an atmosphere containing 5% CO2 and approximately 92% humidity. The cells were incubated for 4 and 24 hours. At each time point, the cells from that experimental time were harvested and stained for flow cytometric analysis of cell surface expression of CD1d by staining with PE anti-human CD1d (eBioscience, clone 51.5, cat. #12-00016-71).
(§6) Harvested cells were stained using standard staining procedure that called for a 1:100 dilution of PE anti-CD1d. Following staining on ice for 25 minutes, cells were washed with PBS/FCS and resuspended in 100 microliters and added to staining tubes containing 400 microliters of PBS. Samples were acquired and analyzed on a Coulter Excel Flow Cytometer.

Raji cells = test: as above; type: cell-based, human; details: 50 microMolar
Protocol: as §1, §2, §3, §4, §5, §6

[1] = system: cell surface CD1d on Daudi cells; test: Cell surface expression of CD1d; type: cell-based, human; details: 50 microMolar
Protocol: as §1, §2, §3, §4, §5, §6

[2] = system: cell surface CD1d on Raji cells; test: Cell surface expression of CD1d; type: cell-based, human; details: 50 microMolar
Protocol: as §1, §2, §3, §4, §5, §6

[3] = system: cell surface CD74 on Raji cells; test: Cell surface CD74 by flow cytometry; type: cell-based, human; details: 24 and 48 hours
Protocol: (§7) The ability of MKN1 (bioCLIP) to alter cell surface CLIP and CD74 levels was determined using Raji or Daudi cells.
(§8) Data were analyzed by histogram with Y axis represents cell number of the 5000 live cells versus the X axis which is a reflection of relative FITC fluorescence with either antibodies to CLIP or CD74. The distance between the histogram from the isotype control staining versus the histogram reflecting the specific stain and is a measure of level of cell surface CLIP or CD74 when staining a population of live Raji or Daudi cells.
as §3
(§9) Protocol: Cells were plated into a 12 well plate with 3 mls total volume containing approximately 0.5×10^6/mL for Daudi cells and 0.5×10^6/mL for Raji cells. […]
(§10) Harvested cells were stained using standard staining procedure that called for a 1:100 dilution of Fitc-anti-human CLIP or CD74 antibody (Fitc, Pharmingen, Cat #554647) or isotype control. […] Samples were acquired and analyzed on a Coulter Excel Flow Cytometer.

[4] = system: cell surface CD74 on Daudi cells; test: Cell surface CD74 by flow cytometry; type: cell-based, human; details: 24 and 48 hours
Protocol: as §7, §8, §3, §9, §10

[5] = system: cell surface CLIP on Daudi cells; test: Cell surface CLIP by flow cytometry; type: cell-based, human; details: 24 and 48 hours
Protocol: (§11) Kinetics of CLIP displacement from the surface of model B cells lines (Daudi and Raji) in response to thymic nuclear protein mixture was determined.
(§12) Results were expressed in histogram analyses (FIG. 3). The Y axis represents cell number of the 5000 live cells versus the X axis which is a reflection of relative Fitc fluorescence. The distance between the histogram from the isotype control staining versus the histogram reflecting the specific stain is a measure of level of cell surface CLIP on a population of live Raji or Daudi cells as indicated. […]
(§13) Harvested cells were stained using standard staining procedure that called for a 1:100 dilution of Fitc-anti-human CLIP or isotype control. […] Samples were acquired and analyzed on a Coulter Excel Flow Cytometer.
as §7
(§14) Data were analyzed by histogram with Y axis represents cell number of the 5000 live cells versus the X axis which is a reflection of relative FITC fluorescence with either antibodies to CLIP or CD74. […]
(§15) Harvested cells were stained using standard staining procedure that called for a 1:100 dilution of Fitc-anti-human CLIP or CD74 antibody (Fitc, Pharmingen, Cat #554647) or isotype control. […] Samples were acquired and analyzed on a Coulter Excel Flow Cytometer. […]

[6] = system: cell surface CLIP on Raji cells; test: Cell surface CLIP by flow cytometry; type: cell-based, human; details: 24 and 48 hours
Protocol: as §11, §12, §13, §7, §14, §15

[7] = background statement; cited from earlier work

Biotinylated FRIMAVLAS: biotinylated FRIMAVLAS (SEQ ID NO: 2), also referred to as MKN 5 (also: biotinylated, position not given here)
binding of biotinylated peptide to cells (Daudi cells; 4 hours): bound with high affinity
binding of biotinylated peptide to cells (Daudi cells; 24 hours): Less binding
binding of biotinylated peptide to cells (Raji cells; 4 hours): bound with high affinity
binding of biotinylated peptide to cells (Raji cells; 24 hours): Less binding
cell surface expression of CD1d ([1]; 4 hours): marginally
cell surface expression of CD1d ([1]; 24 hours): slightly more
cell surface expression of CD1d ([2]; 4 hours): marginally
cell surface expression of CD1d ([2]; 24 hours): slightly more

SGG GSK MRM ATP LLM QAL Y [MKN1 (bioCLIP)]
cell surface CD74 level [3]: alters
cell surface CD74 level [4]: alters
cell surface CLIP level [5]: alters
cell surface CLIP level [6]: alters

C=CC[C@@H]1/C=C(\C)C[C@H](C)C[C@H](OC)[C@H]2O[C@@](O)(C(=O)C(=O)N3CCCC[C@H]3C(=O)O[C@H](/C(C)=C/[C@@H]3CC[C@@H](O)[C@H](OC)C3)[C@H](C)[C@@H](O)CC1=O)[C@H](C)C[C@@H]2OC [FK506, tacrolimus]
immunosuppressive activity relative to cyclosporin [7]: 10-100 times greater than cyclosporin
